Results reported in US20200155555A1, “VITAMIN RECEPTOR DRUG DELIVERY CONJUGATES FOR TREATING INFLAMMATION” (Endocyte, Inc., priority 2007, published 2020).
“And” between values parts separate entries of the source, which are not always exact repeats. Identical values can stand only once.

Tests used:
[1] = Plasma pharmacokinetics after a single s.c. dose of EC0746 or aminopterin
Experimental: Female Lewis rats with rounded tip jugular vein catheters (Harlan) were fed regular rodent diet and used in this study. The animals were given a single subcutaneous dose of EC0746 at 500 nmol/kg. Whole blood samples (300 μl) were collected from the animals at the following time points: 1 min, 10 min, 30 min, 1 h, 2 h, 3 h, 4 h, and 8 h after injection. The blood samples were placed into anti-coagulant tubes containing 1.7 mg/mL of K3-EDTA and 0.35 mg/mL of N-Maleoyl-beta-alanine (0.35 mg/mL). Plasma samples were obtained by centrifugation for 3 min at ˜2,000 g and stored at −80° C. The amount of EC0746 and its released base drugs (EC0470 & aminopterin) were determined by HPLC using the EC0746 injection solution as the standard (see FIG. 14). […] A similar method was used to determine the plasma pharmacokinetics of aminopterin (see FIG. 15).
Thus, the plasma concentrations of EC0746 and two primary metabolites, AMT and AMT hydrazide, were determined by LC/MS/MS after a single subcutaneous EC0746 administration. […] For comparison, the pharmacokinetics of subcutaneously dosed AMT (500 nmol/kg) was also examined (FIG. 33B).

RAW264.7 cells = assay: XTT cell viability / proliferation assay; assay type: cell-based, murine
Experimental: After 2 h incubation, the drug-containing media were replaced and the cells were allowed to incubate further for 70 h. Four hours prior to the end of incubation, LPS was added to the treated cells at a final concentration of 100 ng/mL. 100 μL of the culture supernatants were collected for TNF-α analysis using a commercial ELISA kit.
RAW264.7 cells in 96-well plates were treated with vehicle (culture medium) or 10-fold serial dilutions of EC0932 without or with 100-fold excess free folate. The drug-containing medium was replaced after 2 h treatment and the cells were allowed to incubate further in standard medium for 70 h. Four hours prior to the end of incubation, LPS was added to the treated cells at a final concentration of 100 ng/mL. […] The cell viability was assessed by adding XTT (2,3-bis(2-methoxy-4-nitro-5-sulfo-phenyl)-2H-tetrazolium-5-carboxanilide) to the remaining medium for an additional 4 h following the manufacturer's instructions (Roche Applied Science, Indianapolis, Ind.).
At 4 h before the end of incubation, LPS (100 ng/ml) was added to the culture medium to stimulate cytokine production.

[2] = molecular target: folate-receptor-beta positive CHO-FR-β cells (Homo sapiens, UniProt P14207); details: displacement of 3H-folic acid
[3] = Maximum tolerated dose (MTD) in healthy folate-deficient rats; assay type: in vivo
Experimental: Healthy rats were administered a subcutaneous injection of the indicated dose of aminopterin or EC0746 biweekly for 2 weeks; control animals, no treatment, 100 nmole/kg aminopterin, 50 nmole/kg aminopterin, 500 nmole/kg EC0746, or 2000 nmole/kg EC0746. The animals were weighed daily. See FIG. 16A, B. A dose of 0.1 μmol/kg of aminopterin in folate deficient rats is above the MTD; therefore, the projected MTD of EC0746 would be <0.5 μmol/kg based solely on ˜20% free drug release shown in the previous Example. However, the MTD of EC0746 is actually 2.0 μmol/kg, which is equivalent to 0.4 μmol/kg, or—8× higher than the MTD for free aminopterin. On a molar basis for total aminopterin, the MTD is 40× higher. The therapeutic index (MTD for healthy animals/ED50 for treatment of adjuvant-induced arthristis in female Lewis rats) for EC746 is about 9.5 (2000/210).
Since the toxicity of antifolates can be easily masked by rodent diets enriched with folate, healthy rats on a folate-deficient diet (Harlan) were used to determine the maximum-tolerated-dose levels (MTD) of EC0746, AMT and MTX. The animals were given biweekly injections of EC0746, AMT, and MTX for two weeks. The MTD dose was defined as the dose that had caused at least 13-14% weight loss combined with clinical signs of stress and at least one animal in the >MTD dose group needed to be euthanized. Standard hematologic and blood chemistry parameters were examined as needed along with histopathology. The MTDs of EC0746, MTX and AMT were determined to be 2000, 1000, and 50 nmol/kg, respectively. At above the MTD dose level, the main toxicities of EC0746 were similar to those of AMT and MTX, including manifested gastrointestinal distress (diarrhea), swollen muzzle, immunosuppression (bone marrow, thymus), low white-blood-cell count, low platelet count, and infections. […] Overall, EC0746 was approximately 40-fold less toxic than AMT and 2-fold less toxic than MTX on an equimolar basis in these folate-deficient animals; however, its toxicity profile at above MTD levels was not dissimilar from that of AMT and MTX.

[4] = molecular target: folate receptors (FR-α) of KB cells (Homo sapiens, UniProt P15328); details: competitive binding with 3H-folic acid, FR-α positive KB cells
[5] = tested on: rats with adjuvant-induced arthritis (AIA); assay: Adjuvant-induced arthritis (AIA) model; details: for Splenomagly (% increase in spleen weight relative to healthy rats) / % Inhibition in paw edema / % Weight loss: AIA rats; for % Weight loss: Day 24 relative to first day of treatment
Experimental: Female Lewis rats were fed a folate-deficient diet (Harlan Teklad, Indianapolis, Ind.) for 9-10 days prior to arthritis induction. The adjuvant-induced arthritis (AIA) was induced by intradermal inoculation (at the base of tail) of 0.5 mg of heat-killed Mycobacteria butyricum (BD Diagnostic Systems, Sparks, Md.) in 100 μL light mineral oil (Sigma). Ten days after arthritis induction, paw edema in rats was assessed using a modified arthritis scoring system: 0=no arthritis; 1=swelling in one type of joint; 2=swelling in two types of joint; 3=swelling in three types of joint; 4=swelling of the entire paw. A total score for each rat is calculated by summarizing the scores for each of the four paws, giving a maximum score of 16 for each rat. On Day 10 post arthritis induction, rats with a total arthritis score of ≥2 were removed from the study and the remaining rats were distributed evenly across the control and treatment groups (n=5 for all groups except that n=2-3 for healthy controls). All treatments started on Day 10 unless mentioned otherwise. […]
Rats with adjuvant arthritis were treated subcutaneously with EC0932 (250 nmol/kg) in the absence or presence of 500-fold excess of EC0923 (125 μmol/kg) on days 10, 13, 17, and 20 post arthritis induction. The animals in the healthy and arthritis control groups were left untreated. The arthritis scores and animal body weights were recorded three times a week (see FIG. 19A, B). At the completion of study (day 24), the rats were euthanized by CO2 asphyxiation and processed for paw and spleen weights (see FIG. 20A, B).
The rat adjuvant induced arthritis (AIA) model resembles the characteristics of RA in humans and has been widely used to study the impact of novel anti-inflammatory agents.

[6] = single sc dose of EC0746, 500 nmole/kg, rats
[7] = etanercept s.c. 10 mg/kg once every 3 days

Chain of folate receptors (FR-α) of KB cells (P15328 25-234): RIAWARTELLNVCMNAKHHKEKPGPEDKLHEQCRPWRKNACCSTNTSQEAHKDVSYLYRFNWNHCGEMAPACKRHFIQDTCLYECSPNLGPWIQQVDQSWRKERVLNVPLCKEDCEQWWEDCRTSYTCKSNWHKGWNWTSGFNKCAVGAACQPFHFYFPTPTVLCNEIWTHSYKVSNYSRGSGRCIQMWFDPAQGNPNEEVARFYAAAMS
Chain of folate-receptor-beta positive CHO-FR-β cells (P14207 17-230): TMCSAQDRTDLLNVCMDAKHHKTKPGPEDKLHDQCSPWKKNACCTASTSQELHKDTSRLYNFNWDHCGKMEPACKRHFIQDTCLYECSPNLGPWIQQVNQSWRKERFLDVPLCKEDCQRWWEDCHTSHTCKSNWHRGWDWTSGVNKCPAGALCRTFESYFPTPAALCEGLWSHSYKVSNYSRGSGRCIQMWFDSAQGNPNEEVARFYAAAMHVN

Compound: NNC(=O)CC[C@H](NC(=O)c1ccc(NCc2cnc3nc(N)nc(N)c3n2)cc1)C(=O)O [EC0470, aminopterin gamma-hydrazide]
- delay of peak plasma appearance from the EC0746 Cmax ([1]; EC0746-dosed rats, sc 500 nmol/kg): 30 min
- Tmax of released base drug in plasma ([1]; after single sc dose of EC0746, 500 nmol/kg, rats): ~60 min
- potency on cell proliferation and LPS-stimulated TNF-α production (RAW264.7 cells; 72 h incubations of RAW264.7 macrophages): equally potent

Compound: N=c1[nH]c(N)nc2ncc(CNc3ccc(C(=O)N[C@@H](CCC(=O)NNC(=O)OCCSSC[C@H](NC(=O)[C@H](CCC(=O)NC[C@H](O)[C@@H](O)[C@H](O)[C@H](O)CO)NC(=O)[C@H](CCC(=O)O)NC(=O)[C@H](CCC(=O)NC[C@H](O)[C@@H](O)[C@H](O)[C@H](O)CO)NC(=O)[C@H](CCC(=O)O)NC(=O)[C@H](CCC(=O)NC[C@H](O)[C@@H](O)[C@H](O)[C@H](O)CO)NC(=O)CC[C@H](NC(=O)c4ccc(NCc5cnc6nc(N)[nH]c(=O)c6n5)cc4)C(=O)O)C(=O)O)C(=O)O)cc3)nc12 [EC0746]
- Relative affinity to folate receptors (folic acid set as 1) [2]: 0.27
- therapeutic index (MTD for healthy animals/ED50 in AIA) ([3]; 2000/210): about 9.5
- MTD relative to MTD for free aminopterin, based on ~20% free drug release (0.4 μmol/kg equivalent) ([3]; rat, in vivo): 8 ×
- MTD relative to free aminopterin on a molar basis for total aminopterin ([3]; rat, in vivo): 40 ×
- gastrointestinal-associated toxicities at MTD dose ([3]; rats): showed less gastrointestinal-associated toxicities than AMT and MTX
- Relative affinity to folate receptors (folic acid set as 1) [4]: 0.5
- bioavailability after subcutaneous administration ([1]; rats): bioavailable after subcutaneous administration
- elimination half-life of EC0746 ([1]; single sc dose of EC0746, 500 nmol/kg, rats): ~35 min
- Area Under Curve for free drug (aminopterin+aminopterin hydrazide) [1, 6]: 7.3 nmol·min/mL
- Cmax for free drug (aminopterin+aminopterin hydrazide) [1, 6]: 34 nM
- Cmax for free drug as % of the total dose [1, 6]: 9.6%
- time of Cmax for free drug (aminopterin+aminopterin hydrazide) [1, 6]: 60 min
- EC50 (RAW264.7 cells; 2 h treatment, then 70-72 h in drug-free medium, read-out: EC50 (ED50), viability/proliferation of RAW264.7 cells, XTT assay): 0.3 nM and ~0.3 nM

Compound: Nc1nc2ncc(CNc3ccc(C(=O)N[C@@H](CCC(=O)N[C@H](CC(=O)O)C(=O)N[C@H](CC(=O)O)C(=O)O)C(=O)O)cc3)nc2c(=O)[nH]1 [EC0923]
- Relative affinity to folate receptors (folic acid set as 1) [4]: 0.84
- effect on development or severity of AIA ([5]; EC0923 alone, 125 μmol/kg/dose biweekly 2 weeks): did not have any impact on the development or severity of the disease
- dorsal to ventral paw thickness ([5]; EC0923 alone, 125 μmol/kg/dose biweekly, arthritic control ~9.8, healthy ~5.8): ~9.4 mm
- mean sum of histology scores (maximum 20) ([5]; EC0923 alone, 125 μmol/kg/dose biweekly, arthritic control ~15.3): 14.2

Compound: Nc1nc(N)c2nc(CNc3ccc(C(=O)N[C@@H](CCC(=O)O)C(=O)O)cc3)cnc2n1 [aminopterin]
- MTD at 2 weeks ([3]; rat, in vivo, folate deficient rats, sc biweekly for 2 weeks): < 0.1 µmol/kg
- delay of peak plasma appearance from the EC0746 Cmax ([1]; rat, in vivo, sc, 500 nmol/kg): 30 min
- lethality to AIA rats ([5]; AMT mixed with free folic acid (1:1), 500 nmol/kg/dose, biweekly): 100%

Compound: CN(Cc1cnc2nc(N)nc(N)c2n1)c1ccc(C(=O)N[C@@H](CCC(=O)O)C(=O)O)cc1 [methotrexate]
- Relative affinity to folate receptors (folic acid set as 1) [2]: 0.005
- Relative affinity to folate receptors (folic acid set as 1) [4]: 0.018
- Splenomagly (% increase in spleen weight relative to healthy rats) ([5]; oral, 250 nmol/kg biw): 42 ± 17%
- % Inhibition in paw edema ([5]; oral, 250 nmol/kg biw, Day 24): 70 ± 5%
- % Weight loss ([5]; oral, 250 nmol/kg biw): −14 ± 2%
- % Weight loss ([5]; oral, 1650 nmol/kg qw): −10 ± 2%
- % Inhibition in paw edema ([5]; oral, 1650 nmol/kg qw, calculated based on arthritis scores on Day 24): 47 ± 10 %
- Splenomagly (% increase in spleen weight relative to healthy rats) ([5]; sc, 250 nmol/kg biw): 24 ± 3%
- % Inhibition in paw edema ([5]; sc, 250 nmol/kg biw, Day 24): 78 ± 10%
- % Weight loss ([5]; sc, 250 nmol/kg biw): −2 ± 4%
- Splenomagly (% increase in spleen weight relative to healthy rats) ([5]; sc, 500 nmol/kg biw): 20 ± 4%
- % Inhibition in paw edema ([5]; sc, 500 nmol/kg biw, Day 24): 88 ± 7%
- % Weight loss ([5]; sc, 500 nmol/kg biw): −2 ± 7%
- decrease in dorsal to ventral paw thickness ([5]; oral MTX 250 nmol/kg biweekly): 63%
- decrease in summed histological score ([5]; oral MTX 250 nmol/kg biweekly): 73%
- reductions in all scored histology parameters vs untreated controls ([5]; oral MTX 250 nmol/kg biweekly): 66-84%
- blocking of anti-arthritic activity by folate competitor ([5]; s.c. MTX 250 nmol/kg/dose with 500-fold excess EC0923): not significantly blocked by excess EC0923
- effect on development and severity of arthritis ([5]; s.c. MTX 250 nmol/kg/dose, 2 weeks): significantly improved the development and severity of arthritis
- reduction of local (paw) and systemic (spleen) inflammation ([5]; sc 300 nmol/kg on days 10, 13, 17, 20): similarly active in reducing local (paw) and systemic (spleen) inflammation

Compound: etanercept
- Splenomagly (% increase in spleen weight relative to healthy rats) ([5]; sc, 10 mg/kg q3d): 42 ± 7%
- % Inhibition in paw edema ([5]; sc, 10 mg/kg q3d, Day 24): 46 ± 9%
- % Weight loss ([5]; sc, 10 mg/kg q3d): −15 ± 2%
- decrease in dorsal to ventral paw thickness [5, 7]: 40%
- decrease in summed histological score [5, 7]: 43%
- reduction in bone resorption (histology) [5, 7]: 55%
- reduction in inflammation (histology) [5, 7]: 42%
